Source: patent publication US7358268B2, “Imidazole derivatives as factor Xa inhibitors” (Sanofi-Aventis Deutschland GmbH, priority 2002, dated 2008)

biological target: T1, human factor Xa (Homo sapiens, UniProt P00742); test: Factor Xa assay (chromogenic, purified enzyme); assay type: biochemical; conditions: inhibition constant for factor Xa; chromogenic substrate S-2765 140 μM, enzyme 0.5 nM, 25° C., pH 7.8; Ki calculated from IC50 (Ki=IC50/{1+(substrate concentration/Km)}); read-out: Ki(FXa)
T1 construct: 25 μl human factor Xa (Enzyme Research Laboratories, Inc; South Bend, Ind.) in TBS-PEG; purchased Enzyme Research Laboratories, Inc; South Bend, Ind
Protocol: The ability of the compounds of the formula I to inhibit factor Xa or factor VIIa or other enzymes like thrombin, plasmin, or trypsin can be assessed by determining the concentration of the compound of the formula I that inhibits enzyme activity by 50%, i. e. the IC50 value, which was related to the inhibition constant Ki. Purified enzymes were used in chromogenic assays. The concentration of inhibitor that causes a 50% decrease in the rate of substrate hydrolysis was determined by linear regression after plotting the relative rates of hydrolysis (compared to the uninhibited control) versus the log of the concentration of the compound of formula I. For calculating the inhibition constant Ki, the IC50 value was corrected for competition with substrate using the formula Ki=IC50/{1+(substrate concentration/Km)} wherein Km is the Michaelis-Menten constant (Chen and Prusoff, Biochem. Pharmacol. 22 (1973), 3099-3108; I. H. Segal, Enzyme Kinetics, 1975, John Wiley & Sons, New York, 100-125; which were incorporated herein by reference). a) Factor Xa Assay
In the assay for determining the inhibition of factor Xa activity TBS-PEG buffer (50 mM Tris-HCl, pH 7.8, 200 mM NaCl, 0.05% (w/v) PEG-8000, 0.02% (w/v) NaN3) was used. The IC50 was determined by combining in appropriate wells of a Costar half-area microtiter plate 25 μl human factor Xa (Enzyme Research Laboratories, Inc.; South Bend, Ind.) in TBS-PEG; 40 μl 10% (v/v) DMSO in TBS-PEG (uninhibited control) or various concentrations of the compound to be tested diluted in 10% (v/v) DMSO in TBS-PEG; and substrate S-2765 (N(α)-benzyloxycarbonyl-D-Arg-Gly-L-Arg-p-nitroanilide; Kabi Pharmacia, Inc.; Franklin, Ohio) in TBS-PEG.
The assay was performed by pre-incubating the compound of formula I plus enzyme for 10 min. Then the assay was initiated by adding substrate to obtain a final volume of 100 μl. The initial velocity of chromogenic substrate hydrolysis was measured by the change in absorbance at 405 nm using a Bio-tek Instruments kinetic plate reader (Ceres UV900HDi) at 25° C. during the linear portion of the time course (usually 1.5 min after addition of substrate). The enzyme concentration was 0.5 nM and substrate concentration was 140 μM.

T1 sequence (P00742 235-488 limits assumed): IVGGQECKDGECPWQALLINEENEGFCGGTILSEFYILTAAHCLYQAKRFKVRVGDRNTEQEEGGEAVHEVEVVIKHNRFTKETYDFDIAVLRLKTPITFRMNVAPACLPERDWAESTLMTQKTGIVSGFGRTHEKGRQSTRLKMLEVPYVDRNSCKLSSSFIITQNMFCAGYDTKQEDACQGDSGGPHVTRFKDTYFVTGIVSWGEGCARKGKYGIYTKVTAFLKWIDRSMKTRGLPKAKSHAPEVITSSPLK
T1 sequence (P00742 41-179 partner limits assumed): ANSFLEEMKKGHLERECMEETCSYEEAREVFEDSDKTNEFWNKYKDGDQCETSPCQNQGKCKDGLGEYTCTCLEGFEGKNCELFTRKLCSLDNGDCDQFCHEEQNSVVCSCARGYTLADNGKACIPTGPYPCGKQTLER

| Ki [µM] | SMILES |
| --- | --- |
| 0.046 | CC(C)N1CCC(NC(=O)c2nc(C(N)=O)cn2Cc2cc(-c3ccc(Cl)s3)on2)CC1 [Example 41, 1-[5-(5-Chloro-thiophen-2-yl)-isoxazol-3-ylmethyl]-1H-imidazole-2,4-dicarboxylic acid 4-amide 2-[(1-isopropyl-piperidin-4-yl)-amide]] |
| 0.126 | CC(C)N1CCC(NC(=O)c2nc(C(=O)N(C)CCO)cn2Cc2cc(-c3ccc(Cl)s3)on2)CC1 [Example 42] |
| 0.062 | CC(C)N1CCC(NC(=O)c2nc(C(=O)N3CC(O)C3)cn2Cc2cc(-c3ccc(Cl)s3)on2)CC1 [Example 43, 1-[5-(5-Chloro-thiophen-2-yl)-isoxazol-3-ylmethyl]-4-(3-hydroxy-azetidine-1-carbonyl)-1H-imidazole-2-carboxylic acid (1-isopropyl-piperidin-4-yl)-amide] |
| 0.136 | CC(C)N1CCC(NC(=O)c2nc(C(=O)N(C)C)cn2Cc2cc(-c3ccc(Cl)s3)on2)CC1 [Example 44, 1-[5-(5-Chloro-thiophen-2-yl)-isoxazol-3-ylmethyl]-1H-imidazole-2,4-dicarboxylic acid 4-dimethylamide 2-[(1-isopropyl-piperidin-4-yl)-amide]] |
| 0.057 | CC(C)N1CCC(NC(=O)c2nc(C(=O)OCC3CC3)cn2Cc2cc(-c3ccc(Cl)s3)on2)CC1 [Example 45, 1-[5-(5-Chloro-thiophen-2-yl)-isoxazol-3-ylmethyl]-2-(1-isopropyl-piperidin-4-ylcarbamoyl)-1H-imidazole-4-carboxylic acid cyclopropylmethyl ester] |
| 0.077 | CC(C)N1CCC(NC(=O)c2nc(C(=O)NCCO)cn2Cc2cc(-c3ccc(Cl)s3)on2)CC1 [Example 47] |
| 0.091 | COC1CN(C(=O)c2cn(Cc3cc(-c4ccc(Cl)s4)on3)c(C(=O)NC3CCN(C(C)C)CC3)n2)C1 [Example 48, 1-[5-(5-Chloro-thiophen-2-yl)-isoxazol-3-ylmethyl]-4-(3-methoxy-azetidine-1-carbonyl)-1H-imidazole-2-carboxylic acid (1-isopropyl-piperidin-4-yl)-amide] |
| 0.037 | COC(=O)CCc1cn(Cc2cc(-c3ccc(Cl)s3)on2)c(C(=O)NC2CCN(C(C)C)CC2)n1 [Example 49, 3-[1-[5-(5-Chloro-thiophen-2-yl)-isoxazol-3-ylmethyl]-2-(1-isopropyl-piperidin-4-ylcarbamoyl)-1H-imidazol-4-yl]-propionic acid methyl ester] |
| 0.049 | CC(C)N1CCC(NC(=O)c2nccn2Cc2cc(-c3ccc(Cl)s3)on2)CC1 [Example 60, 1-[5-(5-Chloro-thiophen-2-yl)-isoxazol-3-ylmethyl]-1H-imidazole-2-carboxylic acid (1-isopropyl-piperidin-4-yl)-amide] |
| 0.64 | O=C(NCC1CCN(c2ccncc2)CC1)c1nccn1Cc1cc(-c2ccc(Cl)s2)on1 [Example 63, 1-[5-(5-Chloro-thiophen-2-yl)-isoxazol-3-ylmethyl]-1H-imidazole-2-carboxylic acid (3,4,5,6-tetrahydro-2H-[1,4′]bipyridinyl-4-ylmethyl)-amide] |
| 0.118 | O=C(NC1CCN(c2ccncc2)CC1)c1nccn1Cc1cc(-c2ccc(Cl)s2)on1 [Example 65, 1-[5-(5-Chloro-thiophen-2-yl)-isoxazol-3-ylmethyl]-1H-imidazole-2-carboxylic acid (3,4,5,6-tetrahydro-2H-[1,4′]bipyridinyl-4-yl)-amide] |
| 0.051 | CC(C)N1CCC(NC(=O)c2cnc(C(=O)N3CCCOCC3)n2Cc2cc(-c3ccc(Cl)s3)on2)CC1 [Example 71, 3-[5-(5-Chloro-thiophen-2-yl)-isoxazol-3-ylmethyl]-2-(perhydro-1,4-oxazepine-4-carbonyl)-3H-imidazole-4-carboxylic acid (1-isopropyl-piperidin-4-yl)-amide] |

| SMILES | Ki [µM] |
| --- | --- |
| CC(C)N1CCC(NC(=O)c2nc(C(=O)OCC(=O)OC(C)(C)C)cn2Cc2cc(-c3ccc(Cl)s3)on2)CC1 [Example 46, 1-[5-(5-Chloro-thiophen-2-yl)-isoxazol-3-ylmethyl]-2-(1-isopropyl-piperidin-4-ylcarbamoyl)-1H-imidazole-4-carboxylic acid tert-butoxycarbonylmethyl ester] | 0.128 |
